Reference: PubChem BioAssay AID1963979 (Molecular Pharmacology Branch, DTP, NCI, 2024)
pIC50: −log10 of the molar value. Values joined by “and” are separate entries in the source; they are usually repeats but may differ in a detail not shown here. Identical values can stand only once.

Tested on: 361931-004-R-J1-PDC multicell spheroid viability
Assay: Anticancer human tumor 361931-004-R-J1-PDC patient-derived colon adenocarcinoma cell line growth inhibition [PI3K]
Details: for viability, T/C: stronger effect = lower value
Text: Combinatorial screen of targeted agents with the PI3K inhibitors inavolisib, alpelisib, duvelisib, and copanlisib in multi-cell type tumor spheroids
A high-throughput screen of multi-cell type tumor spheroids was designed to identify active combinations of targeted small molecules and PI3K pathway inhibitors. Complex spheroids include a stromal component modeled by human endothelial cells (HUVEC) and fibroblasts modeled by human mesenchymal stem cells (MSCs). The concentration ranges selected for each drug and investigational agent were based upon clinically achievable concentrations if the clinical Cmax of the agent was known.
Compounds. The drugs and investigational agents: inavolisib (NSC800729), alpelisib (NSC765974), duvelisib (NSC772469), copanlisib (NSC816437), ipatasertib (NSC767898), afuresertib (NSC778305), talazoparib (NSC767125), sapanisertib (NSC764658), selumetinib (NSC741078), tovorafenib (DAY101, NSC766906), vemurafenib (NSC761431), ravoxertinib (NSC781343), sotorasib (NSC818433), MRTX1133 (NSC 836407), abemaciclib (NSC 768073), palbociclib (NSC758247), venetoclax (NSC 766270), SY5609 (NSC837396), enzalutamide (NSC755605), and darolutamide (NSC825331), were obtained from the National Cancer Institute (NCI) Developmental Therapeutics Program Chemical Repository. The FDA-approved anticancer drug set is available from the NCI Developmental Therapeutics Program. […] The stock solutions were prepared in dimethyl sulfoxide (DMSO, Sigma-Aldrich, St. Louis, MO, cat. D2650) at 800-fold the tested concentration and stored at -70 degrees C prior to their use. All drugs and investigational agents were tested over a range starting from a high concentration at or near the clinical Cmax and decreasing in half-log increments. If the clinical Cmax for an agent had not been determined, the highest concentration tested was 10 microM.
Cell Culture. All cells were maintained in an incubator at 37 degrees C and 5% CO2 with 95% humidity. The PDC lines were cultured according to standard operating procedures established by the NCI PDMR (https://pdmr.cancer.gov/sops/default.htm). All PDCs were thawed and cultured in Matrigel-coated flasks prepared with a working solution of 1X Ham's F-12 nutrient mix, without supplementation (Invitrogen, Waltham, MA, cat. 11765054), 100 U/mL penicillin-streptomycin (Invitrogen, cat. 15140122), and 2.5% Matrigel (Corning Inc., Corning, NY, cat. 354248) for the first three passages. The 354836-022-R-J1-PDC, 475296-252-R-J1-PDC, and 997726-040-R-J2-PDC lines were cultured in 6A media, which includes advanced DMEM/F-12 (Thermo Fisher Scientific, cat. 12634028), 10 mM HEPES (Thermo Fisher Scientific, cat. 15630080), 1X GlutaMAX supplement (Thermo Fisher Scientific, cat. 35050061), 0.1 mg/mL primocin (InvivoGen, San Diego, CA, cat. ant-pm-2), 10% defined fetal bovine serum, heat inactivated (HyClone Laboratories Inc., Logan, UT, cat. SH30070.03HI), 50% L-WRN conditioned media (ATCC, cat. CRL-3276), 1.25 mM N-Acetyl-L-cysteine (Sigma-Aldrich, cat. A9165), 10 mM nicotinamide (Sigma-Aldrich, cat. N0636), 1X B-27 supplement (Thermo Fisher Scientific, cat. 17504044), 1X N-2 supplement (Thermo Fisher Scientific, cat. 17502048), and 10 microM Y-27632 dihydrochloride (Tocris Bioscience, Bristol, United Kingdom, cat. 1254). The 624824-186-R-J2-PDC line was cultured in 6C/Colon 1B media, which includes all 6A media components plus 50 ng/mL human EGF recombinant protein (Thermo Fisher Scientific, cat. PHG0311). […]

[1] = curve of first compound, second compound 0.0316 µM
[2] = curve of first compound, second compound 0.1 µM
[3] = curve of first compound, second compound 0.316 µM
[4] = curve of first compound, second compound 1 µM
[5] = second compound 0.0316 µM, first compound 0.0316 µM
[6] = second compound 0.0316 µM, first compound 0.1 µM
[7] = second compound 0.0316 µM, first compound 0.316 µM
[8] = second compound 0.0316 µM, first compound 1 µM
[9] = second compound 0.0316 µM, first compound 3.16 µM
[10] = second compound 0.0316 µM, first compound 10 µM
[11] = second compound 0.1 µM, first compound 0.0316 µM
[12] = second compound 0.1 µM, first compound 0.1 µM
[13] = second compound 0.1 µM, first compound 0.316 µM
[14] = second compound 0.1 µM, first compound 1 µM
[15] = second compound 0.1 µM, first compound 3.16 µM
[16] = second compound 0.1 µM, first compound 10 µM
[17] = second compound 0.316 µM, first compound 0.0316 µM
[18] = second compound 0.316 µM, first compound 0.1 µM
[19] = second compound 0.316 µM, first compound 0.316 µM
[20] = second compound 0.316 µM, first compound 1 µM
[21] = second compound 0.316 µM, first compound 3.16 µM
[22] = second compound 0.316 µM, first compound 10 µM
[23] = second compound 1 µM, first compound 0.0316 µM
[24] = second compound 1 µM, first compound 0.1 µM
[25] = second compound 1 µM, first compound 0.316 µM
[26] = second compound 1 µM, first compound 1 µM
[27] = second compound 1 µM, first compound 3.16 µM
[28] = second compound 1 µM, first compound 10 µM
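Further: spheroids exposed to agents for seven days before readout.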

## C=CC(=O)N1CCN(c2nc(=O)n(-c3c(C)ccnc3C(C)C)c3nc(-c4c(O)cccc4F)c(F)cc23)C(C)C1 (stereo not drawn)
Compound 0.0316 µM
  viability, T/C: 99.5% [middle of 4 runs]
Compound 0.1 µM
  viability, T/C: 95.4% [middle of 4 runs]
Compound 0.316 µM
  viability, T/C: 105% [middle of 4 runs]
Compound 1 µM
  viability, T/C: 103% [middle of 4 runs]
Compound 3.16 µM
  viability, T/C: 100% [middle of 4 runs]
Compound 10 µM
  viability, T/C: 99.2% [middle of 4 runs]
Curve of compound
  pIC50: < 5.00

## C#Cc1c(F)ccc2cc(O)cc(-c3ncc4c(N5CC6CCC(C5)N6)nc(OCC56CCCN5CC(F)C6)nc4c3F)c12 (stereo not drawn) + COc1c(OCCCN2CCOCC2)ccc2c3n(c(=NC(=O)c4cnc(N)nc4)nc12)CCN3
Curve of first compound, second compound 0.00316 µM
  pIC50: < 5.00
Curve of first compound, second compound 0.01 µM
  pIC50: < 5.00
[1]
  pIC50: < 5.00
[2]
  pIC50: 5.25
[3]
  pIC50: 7.00
[4]
  pIC50: > 7.50
Second compound 0.00316 µM, first compound 0.0316 µM
  viability, T/C: 105%
Second compound 0.00316 µM, first compound 0.1 µM
  viability, T/C: 108%
Second compound 0.00316 µM, first compound 0.316 µM
  viability, T/C: 98.1%
Second compound 0.00316 µM, first compound 1 µM
  viability, T/C: 91.9%
Second compound 0.00316 µM, first compound 3.16 µM
  viability, T/C: 101%
Second compound 0.00316 µM, first compound 10 µM
  viability, T/C: 84.9%
Second compound 0.01 µM, first compound 0.0316 µM
  viability, T/C: 107%
Second compound 0.01 µM, first compound 0.1 µM
  viability, T/C: 106%
Second compound 0.01 µM, first compound 0.316 µM
  viability, T/C: 99.1%
Second compound 0.01 µM, first compound 1 µM
  viability, T/C: 91%
Second compound 0.01 µM, first compound 3.16 µM
  viability, T/C: 88.8%
Second compound 0.01 µM, first compound 10 µM
  viability, T/C: 73%
[5]
  viability, T/C: 91.5%
[6]
  viability, T/C: 96.2%
[7]
  viability, T/C: 85.9%
[8]
  viability, T/C: 72.5%
[9]
  viability, T/C: 67.2%
[10]
  viability, T/C: 51.5%
[11]
  viability, T/C: 80.6%
[12]
  viability, T/C: 69.9%
[13]
  viability, T/C: 68.5%
[14]
  viability, T/C: 61.8%
[15]
  viability, T/C: 54.6%
[16]
  viability, T/C: 45.7%
[17]
  viability, T/C: 54.5%
[18]
  viability, T/C: 51.9%
[19]
  viability, T/C: 42.3%
[20]
  viability, T/C: 37.3%
[21]
  viability, T/C: 33.6%
[22]
  viability, T/C: 23%
[23]
  viability, T/C: 18.4%
[24]
  viability, T/C: 17.6%
[25]
  viability, T/C: 14.9%
[26]
  viability, T/C: 12.1%
[27]
  viability, T/C: 9.63%
[28]
  viability, T/C: 8.02%

## CC(Cn1ccc(-c2ccc(C#N)c(Cl)c2)n1)NC(=O)c1cc(C(C)O)[nH]n1 (stereo not drawn) + CC(Nc1ncnc2nc[nH]c12)c1cc2cccc(Cl)c2c(=O)n1-c1ccccc1
[1]
  pIC50: < 5.00
[2]
  pIC50: < 5.00
[3]
  pIC50: < 5.00
[4]
  pIC50: < 5.00
Curve of first compound, second compound 3.16 µM
  pIC50: < 5.00
Curve of first compound, second compound 10 µM
  pIC50: < 5.00
[5]
  viability, T/C: 102%
[6]
  viability, T/C: 92.6%
[7]
  viability, T/C: 96.7%
[8]
  viability, T/C: 90%
[9]
  viability, T/C: 104%
[10]
  viability, T/C: 102%
[11]
  viability, T/C: 105%
[12]
  viability, T/C: 96.9%
[13]
  viability, T/C: 103%
[14]
  viability, T/C: 101%
[15]
  viability, T/C: 106%
[16]
  viability, T/C: 99.4%
[17]
  viability, T/C: 102%
[18]
  viability, T/C: 103%
[19]
  viability, T/C: 104%
[20]
  viability, T/C: 103%
[21]
  viability, T/C: 108%
[22]
  viability, T/C: 97.4%
[23]
  viability, T/C: 99.5%
[24]
  viability, T/C: 102%
[25]
  viability, T/C: 96.4%
[26]
  viability, T/C: 98%
[27]
  viability, T/C: 100%
[28]
  viability, T/C: 106%
Second compound 3.16 µM, first compound 0.0316 µM
  viability, T/C: 98.8%
Second compound 3.16 µM, first compound 0.1 µM
  viability, T/C: 104%
Second compound 3.16 µM, first compound 0.316 µM
  viability, T/C: 100%
Second compound 3.16 µM, first compound 1 µM
  viability, T/C: 104%
Second compound 3.16 µM, first compound 3.16 µM
  viability, T/C: 103%
Second compound 3.16 µM, first compound 10 µM
  viability, T/C: 104%
Second compound 10 µM, first compound 0.0316 µM
  viability, T/C: 105%
Second compound 10 µM, first compound 0.1 µM
  viability, T/C: 95.9%
Second compound 10 µM, first compound 0.316 µM
  viability, T/C: 100%
Second compound 10 µM, first compound 1 µM
  viability, T/C: 99%
Second compound 10 µM, first compound 3.16 µM
  viability, T/C: 109%
Second compound 10 µM, first compound 10 µM
  viability, T/C: 98.7%

## Cn1nccc1Nc1nccc(-c2ccn(C(CO)c3ccc(Cl)c(F)c3)c(=O)c2)n1 (stereo not drawn)
Compound 0.0316 µM
  viability, T/C: 106% [middle of 4 runs]
Compound 0.1 µM
  viability, T/C: 92.5% [middle of 4 runs]
Compound 0.316 µM
  viability, T/C: 97% [middle of 4 runs]
Compound 1 µM
  viability, T/C: 95.2% [middle of 4 runs]
Compound 3.16 µM
  viability, T/C: 78.3% [middle of 4 runs]
Compound 10 µM
  viability, T/C: 61.8% [middle of 4 runs]
Curve of compound
  pIC50: < 5.00 and 5.02
